Like-named read-outs stand apart in the source and are kept apart here. Where no end group is shown, it is not given here.

The subject of data set [1] is cancer patients. Description: Skin test for immediate and delayed type hypersensitivity in cancer patients. The conditions noted are these: for type I allergy in skin tests during the course of vaccination: skin tests before the 9th and 17th dose (ART413, SART3315), 3rd pre-vaccination skin test (CypB91). Here is the method:
For the skin test, 10 μg of 5 kinds of peptides was subcutaneously administered to each patient. Saline was used as the negative control. 20 minutes and 24 hours after injection, immediate and delayed type hypersensitivity (DHT) reactions were looked for. The skin test reaction was determined as positive if erythema and sclerosis were more than 10 mm in diameter. If the immediate hypersensitivity reaction was negative, a peptide was administered. Each peptide solution (3 mg/ml) was mixed with the same amount of IFA (Montanide ISA-51) and emulsified in a 5-mI plastic syringe, and 3 ml of the emulsion was subcutaneously administered to the lateral femoral region every two weeks. Serum PSA level was measured 4 weeks after vaccination. The time passed was defined as the time from the registration day to the date when the progress of the target disease was recorded. For patients who chose to discontinue the study without any progress of the target disease (e.g., increase in PSA) it was determined that the disease had progressed at the time the study was stopped.
When an immediate hypersensitivity reaction positive in the skin test of one of these peptides, that peptide was vaccinated if the fifth peptide of criteria A, B, or Z was negative in the skin test. […] In Table 14, o signifies vaccine peptides given to each patient.
Vaccine was administered to HLA-A24 positive patients with progressive cancer as following. CypB91 was given to lung cancer patients, ART475 to ovarian cancer patients, and SART3109 to colorectal cancer patients. None of the patients received any steroids or other immunosuppressants from 4 weeks before the beginning of this study to the end of the study. When the skin test was negative, 1 ml of peptide solution (1 mg/ml) was emulsified with the same amount of Freund's incomplete adjuvant (Montanide ISA-51) and injected subcutaneously. In this embodiment, all patients were vaccinated at least three times every two weeks, and up to seventeen times, depending on the patient's wishes.

In data set [2] the test system is healthy donors. The conditions noted are these: in vivo.
Data set [3] concerns cancer patients. The conditions noted are these: cancer patients (Miyagi et al., Clin. Cancer Res. 7:3950, 2001); cited from earlier work.
Data set [4] has as its system HLA-A24 restricted antigen peptide-specific T cells (CTL precursors) in PBMCs. It counts as cell-based, human. Particulars: for IFN-γ production 1st well / IFN-γ production 2nd well / IFN-γ production 3rd well / change in reactivity of PBMCs to the vaccinated peptide after vaccination: HLA-A24 positive cervical cancer patient; for change in reactivity of PBMCs to the vaccinated peptide after vaccination: before vs after 3rd and 6th dose; for CTL precursor induction assay, response level per well: quadricate assay.

Data set [5] has as its system healthy donors. Description: Allergic skin reaction (type I allergy) skin test in healthy donors.
The test system of data set [6] is CD8 positive and HLA-A24/peptide tetramer positive T cells. The conditions noted are these: PBMCs of healthy donors sensitized in vitro with EBV peptide, protocol C.
Protocol: Recombinant HLA-A2402 a chains containing a biotinated portion and recombinant β2-microglobline were synthesized and used for refolding of soluble HLA molecules in the presence of HLA-A2402 binding peptides. […] Monomer HLA-peptide complex was biotinated with BirA in the a chain, which was isolated form free biotin by gel filtration. The biotinated HLA was tetramerized with 4:1 molar ratio of Strept-avidin-PE. PBMCs sensitized in vitro were re-suspended at the ratio of 5×10^5 cells per 25 μl of phosphate buffer saline (PBS) containing 20% of human AB serum. […] After that, the cells were washed with PBS and analyzed using FACScan. Twenty thousand events were obtained.
More specifically, PBMCs stimulated according to protocol C determined in Example 3 were analyzed by the tetramer assay as described above.
The mark [7] stands for this setting: after more than 5 doses of cancer vaccine.
[8] abbreviates: before vaccination, response to HIV-C1R-A24 cells subtracted.
The mark [9] stands for this setting: colorectal cancer patient 4, after the 3rd vaccination.
Where [10] appears, read: HRPC Pt. 3, pre-vaccinated PBMCs.
[11] abbreviates: HLA-A24 positive cervical cancer patient PBMCs.
The mark [12] stands for this setting: HRPC Pt. 1, pre-vaccinated PBMCs.

AFLRHAAL [ART413, AFLRHAAL]: in the data set on cancer patients [1] (human, in vivo), the “immediate hypersensitivity reaction in skin test” value is recorded as “positive in all patients”. The “type I allergy in skin tests during the course of vaccination” value (“type I allergy” below) in the data set on cancer patients [1] was “did not induce type I allergy”. In addition, in the data set with healthy donors [2], the “rate of skin reaction occurrence” value turned out to be 95% and the “rate of skin reaction occurrence (donors)” value (“rate … (donors)” below) is on record as 38/40. The “allergic skin reaction in pre-vaccination study” value in the data set with cancer patients [3] is reported as “induced allergic skin reaction”.
As for AYIDFEMKI [SART3315], the “type I allergy” value in the data set with cancer patients [1] is “did not induce type I allergy”. For the same sequence, in the data set on healthy donors [2], the “rate of skin reaction occurrence” value came to 45% and the “rate … (donors)” value was 18/40. In the data set on cancer patients [3], the “allergic skin reaction in pre-vaccination study” value is on record as “induced allergic skin reaction”.
DFMIQGGDF [CypB91]: the “immediate hypersensitivity reaction in skin test” value in the data set on cancer patients [1] (human, in vivo) is “positive in all patients”. Moreover, the “type I allergy” value with cancer patients [1] was “induced type I allergy”. For the same sequence, in the data set on healthy donors [2], the “rate … (donors)” value is given as “no such response”.
For DYLRSVLEDF [lck488], in data set [4] (setting [7]), the “IFN-γ production 1st well” value was determined as 25 pg/well and the “IFN-γ production 2nd well” value is listed as 99 pg/well. In addition, in data set [4] (setting [8]), the “IFN-γ production 1st well” value is reported as less than 0 pg/well, the “IFN-γ production 2nd well” value was less than 0 pg/well and the “IFN-γ production 3rd well” value is on record as 25 pg/well. Besides, the “peptide-specific DTH reaction” value in the data set on cancer patients [1] (colorectal cancer patient 1) was “observed after the 6th vaccination”. For the same sequence, the “peptide-specific DTH reaction” value in the data set with cancer patients [1] (setting [9]) is given as “exhibited DTH reaction”.
Turning to DYPSLSATDI [ART475], in data set [4] (setting [7]), the “IFN-γ production 1st well” value is given as 9 pg/well, the “IFN-γ production 2nd well” value was found to be 2 pg/well and the “IFN-γ production 3rd well” value is reported as 60 pg/well. For the same sequence, the “change in reactivity of PBMCs to the vaccinated peptide after vaccination” value in data set [4] was “increase in reactivity”. Besides, in data set [4] (setting [10]), the “CTL precursor induction assay, response level per well” value was “⊚AE”. For the same sequence, in data set [4] (HRPC Pt. 4, pre-vaccinated PBMCs), the “CTL precursor induction assay, response level per well” value was “⊚B”. The “rate … (donors)” value in the data set on healthy donors [2] is “no such response”.
EYCLKFTKL [ART1170]: the “immediate hypersensitivity reaction in skin test” value in the data set on cancer patients [1] (10 colorectal cancer patients, before vaccination) is listed as “positive in all patients”.
As for HFHRVIPDF, the “Allergic skin reaction, area of flare” value with healthy donors [5] (healthy donor HD1) was determined as 375 mm × mm; in the data set with healthy donors [5] (healthy donor HD2), 1225 mm × mm; in the data set on healthy donors [5] (healthy donor HD3) it was 750 mm × mm; with healthy donors [5] (healthy donor HD6) it was 900 mm × mm; in the data set with healthy donors [5] (healthy donor HD10) it was 156 mm × mm.
On to HYTNASDGL [lck208], for which the “frequency of detection in the primary screening (patients)” value in data set [4] is reported as 3/10. Further, in data set [4] (setting [11]), the “IFN-γ production After 3rd dose of vaccine” value is 676 pg/mL. Moreover, the “IFN-γ production After 6th dose of vaccine” value in data set [4] (setting [11]) is 745 pg/mL. Moreover, the “IFN-γ production Pre-Vaccination” value in data set [4] (setting [11]) was found to be 602 pg/mL. Further, the “IFN-γ production 1st well” value is recorded as 41 pg/well in data set [4] (setting [7]) and less than 0 pg/well in data set [4] (setting [8]). The “IFN-γ production 2nd well” value in data set [4] (setting [7]) is given as 1473 pg/well; in data set [4] (setting [8]), less than 0 pg/well. Further, in data set [4] (setting [8]), the “IFN-γ production 3rd well” value is given as 76 pg/well. Also, the “change in reactivity of PBMCs to the vaccinated peptide after vaccination” value in data set [4] is listed as “increase in reactivity”. Also, the “CTL precursor induction assay, response level per well” value in data set [4] (setting [12]) is recorded as “E^′”; in data set [4] (setting [10]), “⊚AD”; in data set [4] (HRPC Pt. 6, pre-vaccinated PBMCs), “⊚ArAAC”; in data set [4] (HRPC Pt. 9, pre-vaccinated PBMCs), “⊚AD”. Also, the “positive well frequency after vaccination” value in data set [4] (colorectal cancer patient 1) and in data set [4] (colorectal cancer patient 2) was “increase in positive well frequency” each time. The “peptide-specific DTH reaction” value in the data set on cancer patients [1] (colorectal cancer patient 1) is “observed after the 6th vaccination”; in the data set with cancer patients [1] (setting [9]), “exhibited DTH reaction”.
Regarding KFHRVIKDF [CypB84], the “patients with immediate hypersensitivity reaction in pre-vaccination skin test” value in the data set on cancer patients [1] (vaccinated patients with lung cancer, Phase I clinical trial) is 8 of 10. Further, in the data set on healthy donors [2], the “rate of skin reaction occurrence” value came out at 95% and the “rate … (donors)” value is 39/41.
As to KFHRVIPKF, the “Allergic skin reaction, area of flare” value in the data set on healthy donors [5] (healthy donor HD1) came out at 600 mm × mm; with healthy donors [5] (healthy donor HD2), 750 mm × mm; in the data set with healthy donors [5] (healthy donor HD3) it was 1225 mm × mm; in the data set with healthy donors [5] (healthy donor HD6), 500 mm × mm; in the data set with healthy donors [5] (healthy donor HD10), 625 mm × mm.
As for NFHRVIKDF, the “Allergic skin reaction, area of flare” value is listed as 360 mm × mm in the data set with healthy donors [5] (healthy donor HD1); 1400 mm × mm with healthy donors [5] (healthy donor HD2); 600 mm × mm in the data set with healthy donors [5] (healthy donor HD3); 1350 mm × mm with healthy donors [5] (healthy donor HD6); 300 mm × mm in the data set with healthy donors [5] (healthy donor HD10).
As for PFHRVIPDF, the “Allergic skin reaction, area of flare” value was found to be 525 mm × mm in the data set on healthy donors [5] (healthy donor HD1); 2000 mm × mm in the data set on healthy donors [5] (healthy donor HD2); 1400 mm × mm in the data set with healthy donors [5] (healthy donor HD3); 700 mm × mm with healthy donors [5] (healthy donor HD6); 270 mm × mm with healthy donors [5] (healthy donor HD10).
Take RYLRQQLLGI [HIV peptide]: the “ratio of the CD8 positive and HLA-A24/peptide tetramer positive subsets” value in data set [6] came out at 0.03%.
As for SFHRVIKDF, in the data set on healthy donors [5] (5 healthy donors), the “skin reaction compared with human CypB84” value was “weaker skin reaction”. For the same sequence, the “Allergic skin reaction, area of flare” value in the data set on healthy donors [5] (healthy donor HD1) was 0 mm × mm; with healthy donors [5] (healthy donor HD2), 400 mm × mm; with healthy donors [5] (healthy donor HD3), 225 mm × mm; in the data set with healthy donors [5] (healthy donor HD6), 255 mm × mm; in the data set on healthy donors [5] (healthy donor HD10), 100 mm × mm.
Regarding SYTRLFLIL [SART2899], the “immediate hypersensitivity reaction in skin test” value with cancer patients [1] (human, in vivo) is “positive in all patients”. Further, in the data set with healthy donors [2], the “rate of skin reaction occurrence” value came out at 25% and the “rate … (donors)” value is given as 10/40. In the data set with cancer patients [3], the “allergic skin reaction in pre-vaccination study” value was “induced allergic skin reaction”.
With TFDYLRSVL [lck486], the figures for the “IFN-γ production 1st well” value in data set [4] (setting [7]) and in data set [4] (setting [8]) were 2 pg/well and less than 0 pg/well, respectively. Also, the “IFN-γ production 2nd well” value is 24 pg/well in data set [4] (setting [7]) and less than 0 pg/well in data set [4] (setting [8]). In addition, the “IFN-γ production 3rd well” value was less than 0 pg/well in data set [4] (setting [7]) and 31 pg/well in data set [4] (setting [8]). Moreover, the “CTL precursor induction assay, response level per well” value was “E (E: 0.1<p≦0.2 and 100≦net)” in data set [4] (setting [12]); “^b(⊚B)” in data set [4] (HRPC Pt. 2, pre-vaccinated PBMCs); “(D)” in data set [4] (setting [10]); “⊚A” in data set [4] (HRPC Pt. 8, pre-vaccinated PBMCs). Moreover, the “peptide-specific DTH reaction” value in the data set with cancer patients [1] (setting [9]) is recorded as “exhibited DTH reaction”.
For the sequence TFHRVIKDF, the “Allergic skin reaction, area of flare” value is on record as 540 mm × mm in the data set on healthy donors [5] (healthy donor HD1); 1400 mm × mm in the data set with healthy donors [5] (healthy donor HD2); 750 mm × mm in the data set on healthy donors [5] (healthy donor HD3); 450 mm × mm with healthy donors [5] (healthy donor HD6); 300 mm × mm in the data set with healthy donors [5] (healthy donor HD10).
In the case of TYGPVFMCL [EBV, reference compound], in data set [4], the “detection of peptide-specific T cells” value was “detected in all 10 donors”; the “difference in IFN-γ production between target cells sensitized with EB virus peptide and HIV peptide” value is 2775 pg/mL; the “difference in production level of IFN-γ between target cells sensitized with EB virus peptide and HIV peptide” value was “more than 300 pg/ml”. For the same sequence, the “ratio of the CD8 positive and HLA-A24/peptide tetramer positive subsets” value in data set [6] is 1.15%.

The record behind these values is patent US20060035291A1, “Method of detecting cellular immunity and application thereof to drugs” (priority 2001, published 2006).
